Laboratory results from US7265111B2, “Adenosine analogues and their use as pharmaceutical agents” (Sanofi-Aventis Deutschland GmbH, priority 2002, dated 2007).

Experiments:
[1] = target: T1, Adenosine A3 receptor (Homo sapiens, UniProt P0DMS8); assay: FLIPR intracellular Ca2+ functional assay, recombinant CHO cells (A3/Gα6qi4myr); type: cell-based; settings: for EC50: read-out: EC50 values (agonist activity at adenosine receptors) A3
T1 construct: expressed in transfected cells; host or cells: CHO (Chinese hamster ovary) cells, stably double-transfected
T1 sequence (P0DMS8 1-318): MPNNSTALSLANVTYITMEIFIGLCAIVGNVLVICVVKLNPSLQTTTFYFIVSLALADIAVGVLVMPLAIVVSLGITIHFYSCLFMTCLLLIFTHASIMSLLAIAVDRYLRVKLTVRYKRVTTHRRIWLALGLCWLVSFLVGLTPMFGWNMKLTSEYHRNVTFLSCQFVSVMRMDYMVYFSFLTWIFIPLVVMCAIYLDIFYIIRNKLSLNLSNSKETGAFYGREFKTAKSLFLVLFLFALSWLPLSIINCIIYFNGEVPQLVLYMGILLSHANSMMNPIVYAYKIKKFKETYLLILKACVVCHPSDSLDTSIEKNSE
Method: (§1) In Vitro Functional Assays with Recombinant Cell Lines:
(§2) Functional assays were performed by detection of agonist-induced changes in the intracellular concentration of Ca^2+ in recombinant cell lines expressing adenosine receptor subtypes using the FLIPR™ (fluorescence imaging plate reader, Molecular Devices) technology. To allow optimal signalling through Ca^2+, chinese hamster ovary (CHO) cells were stably double-transfected with cDNAs to achieve expression of suitable combinations of adenosine receptor subtypes (A1, A2a, A2b or A3) with either G-protein Gα16 or hybrid protein Gα6qi4myr (German Patent Application no. 100333532.2). Optimal signals were achieved using combinations as follows:
(§3) For assays, recombinant cells were seeded in 96-well dishes (50000 cells/well) and grown overnight. Medium was then removed and cells incubated for 1 hour in buffer containing the dye Fluo-4. After incubation with dye, cells were washed, test compound added and changes in intracellular Ca^2+ concentration measured by FLIPR. Measured values were expressed as % change relative to controls (0%: no test compound added; 100%: 1 μM Adenosine added) and used for calculation of dose-response curves and subsequent determination of EC50 values.

[2] = target: T2, Adenosine A1 receptor (Homo sapiens, UniProt P30542); assay: FLIPR intracellular Ca2+ functional assay, recombinant CHO cells (A1/Gα6qi4myr); type: cell-based; settings: read-out: EC50 values (agonist activity at adenosine receptors) A1
T2 construct: expressed in transfected cells; host or cells: CHO (Chinese hamster ovary) cells, stably double-transfected
T2 sequence (P30542 1-326): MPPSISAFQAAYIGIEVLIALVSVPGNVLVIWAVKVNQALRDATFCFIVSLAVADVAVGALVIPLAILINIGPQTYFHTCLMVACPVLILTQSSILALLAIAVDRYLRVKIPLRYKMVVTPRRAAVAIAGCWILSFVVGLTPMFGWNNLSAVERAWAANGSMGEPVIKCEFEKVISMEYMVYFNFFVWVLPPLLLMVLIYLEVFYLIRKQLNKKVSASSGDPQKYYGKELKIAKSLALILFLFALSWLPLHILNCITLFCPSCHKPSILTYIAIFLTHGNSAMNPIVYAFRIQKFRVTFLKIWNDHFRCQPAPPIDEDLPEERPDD
Method: as §1, §2, §3

[3] = target: T3, Adenosine A2b receptor (Homo sapiens, UniProt P29275); assay: FLIPR intracellular Ca2+ functional assay, recombinant CHO cells (A2b/Gα16); type: cell-based; settings: for EC50: read-out: EC50 values (agonist activity at adenosine receptors) A2B
T3 construct: expressed in transfected cells; host or cells: CHO (Chinese hamster ovary) cells, stably double-transfected
T3 sequence (P29275 1-332): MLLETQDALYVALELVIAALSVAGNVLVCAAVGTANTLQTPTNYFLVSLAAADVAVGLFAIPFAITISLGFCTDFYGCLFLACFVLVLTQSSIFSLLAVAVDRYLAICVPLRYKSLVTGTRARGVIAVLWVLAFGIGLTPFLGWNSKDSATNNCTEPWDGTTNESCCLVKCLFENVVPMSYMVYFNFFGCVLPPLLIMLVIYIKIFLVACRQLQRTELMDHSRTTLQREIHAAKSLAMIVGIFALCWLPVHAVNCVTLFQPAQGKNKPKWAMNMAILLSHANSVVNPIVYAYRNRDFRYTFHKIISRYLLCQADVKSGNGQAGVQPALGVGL
Method: as §1, §2, §3

[4] = test system: isolated guinea pig atrium; assay: Effect on the isolated guinea pig atrium (contractile force, heart rate)
Method: D. Effect on the Isolated Guinea Pig Atrium:
Guinea pigs of either sex were killed by a blow on the back of the neck and exsanguinated.
Their heart was taken out and the atria removed. The preparation (atrium) was immediately transferred to Ringer solution (JT 431) which was at a temperature of 32° C. and was bubbled with a mixture of 95% O2 and 5% CO2. The composition of the solution in […] was: NaCl 9.0; KCl 0.42 CaCl2 0.24; NaHCO3 0.2; glucose 1.0. The atrium beats spontaneously with an initial tension of 500 mg. The contractile force and the heart rate was recorded with a computer program and automatically calculated (B-mon and A-mon PC programs. Fa. Jäckel. Hanau. GERMANY). After equilibration, the test compound was added to a final bath concentration. N was 4-6 per concentration.

[5] = test system: isolated rat adipocytes; assay: Antilipolytic effect in isolated rat adipocytes; type: cell-based; settings: Adipocyte, adenosine deaminase-induced lipolysis (glycerol and free fatty acid release)
Method: E. Antilipolytic Effect in Isolated Rat Adipocytes:
For the preparation of isolated rat adipocytes, epididymal fat pads were obtained from male Sprague-Dawley rats (150-180 g) killed by decapitation. The main fat pad blood vessel was removed with forceps and the pads were cut into small pieces. Digestion was carried out at 37° C. in a shaking water bath by treating 1 g of sliced pad for 20 min with 3 ml of 1 mg/ml collagenase (type I, CLS, Worthington) in 1% BSA, fraction V, in KRH (Krebs-Ringer solution buffered with 25 mM HEPES/KOH, pH 7.4, containing 2.5 mM CaCl2, 2 mM glucose, 1 mM sodium pyruvate, 0.5 units/ml adenosin deaminase and 200 nM phenylisopropyl adenosine). The adipocytes were filtered through nylon mesh of sufficient pore size that no pressure other than gentle teasing with a plastic spatula was necessary for the cells to pass through. After three cycles of centrifugation (500 g, 1 min), aspiration of the infranatant. and resuspension in KRH containing 1% BSA, the cells were suspended in KRH containing 4% defatted BSA. Small aliquots of the final suspension were aspirated into capillary hematocrit tubes and centrifuged for 1 min in a Microhematocrit centrifuge in order to determine what fraction of the suspension consisted of fat cells. Results expressed as activities per unit volume of packed adipocytes (corresponding to equivalent numbers of cells) are based on this centrifugation procedure. Lipolysis was initiated by addition of a 100 μl aliquot of the adipocyte suspension to 700 μl of incubation medium [prewarmed to 37° C. and consisting of KRH, 4% defatted BSA and 1 U/ml adenosine deaminase (type I, Sigma)], with or without addition of 8 μl of a solution of the appropriate test substance in 100% DMSO (at a concentration corresponding to 100 times its concentration in the final mixture). […] Incubations were performed in 5 ml polypropylene vials agitated in a shaking water bath (140 cycles/min, amplitude 4.5 cm) at 37° C. for 20, 40, and 60 min. The incubation was terminated by addition of 200 μl of 50 mM EDTA buffered to pH 7.4 with Tris. For the glycerol determination, the whole mixture was mixed rapidly and homogenized with a ground glass pestle in a 1 ml ground glass homogenizing tube (10 pulses). The homogenate was transferred immediately to a 1.5 ml Eppendorf cup precooled to 4° C., after which the extracts were maintained at 4° C. The homogenate was then centrifuged (10,000 g, 15 min) and the infranatant below the fat cake removed with a glass Pasteur pipette. taking care not to aspirate the membrane pellet. and transferred to another Eppendorf cup. 300 μl aliquots of the infranatant were added to 300 μl volumes of 10% (w/v) HClO4. The precipitate was in each case removed by centrifugation (10,000 g, 2 min) and the supernatant neutralized with 20% (w/v) KOH, followed by addition of 50 μl of 1 M Tris/HCl, pH 7.4, A 50 μl sample was then incubated (5 min, 37° C.) with 1 ml of 0.1 M HEPES/KOH, pH 7.5, containing 2 mM ATP, 0.5 mM 4-aminoantipyrine, 1 mM EDTA, 0.5 U glycerol kinase, 4 U glycerol-3-phosphate oxidase, 2 U peroxidase, 2.7 mM p-chlorophenol, 0.04% Triton X-100 and 2 mM MgSO4.7H2O, and the glycerol content determined from the absorbance at 505 nm. For the determination of free fatty acids, 300 μl aliquots of the incubation mixture were added to 3 ml of chloroform/heptane (1:1 v/v) containing 2% (v/v) methanol. and the liberated free fatty acids determined with copper reagent and bathocuproine. The inhibitory activities of the cyclipostins were calculated from the combined results (glycerol and free fatty acid release) by plotting the log of the dose against the percent response (with the adenosine deaminase-induced lipolysis set at 100%). Data in the linear portion of the log (dose)-percent response curves were analyzed using parallel-line bioassay techniques.

[6] = target: T4, Adenosine A2a receptor (Homo sapiens, UniProt P29274); assay: FLIPR intracellular Ca2+ functional assay, recombinant CHO cells (A2a/Gα16); type: cell-based
T4 construct: expressed in transfected cells; host or cells: CHO (Chinese hamster ovary) cells, stably double-transfected
Method: as §1, §2, §3

T4 sequence (P29274 whole entry): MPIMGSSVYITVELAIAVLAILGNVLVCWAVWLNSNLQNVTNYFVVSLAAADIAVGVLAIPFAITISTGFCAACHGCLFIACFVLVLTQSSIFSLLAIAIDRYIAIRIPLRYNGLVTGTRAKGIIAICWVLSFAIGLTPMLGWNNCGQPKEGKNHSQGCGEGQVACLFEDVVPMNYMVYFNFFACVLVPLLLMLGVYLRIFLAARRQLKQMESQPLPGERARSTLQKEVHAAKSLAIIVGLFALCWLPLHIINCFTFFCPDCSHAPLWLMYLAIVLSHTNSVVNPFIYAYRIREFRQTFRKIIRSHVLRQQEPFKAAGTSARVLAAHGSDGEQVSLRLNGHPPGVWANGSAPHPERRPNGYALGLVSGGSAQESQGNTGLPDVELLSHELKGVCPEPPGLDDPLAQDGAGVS

Compound	EC50 [1] [nM]	EC50 [2] [nM]	EC50 [3] [nM]	IC50 [5] [nM]	EC50 values (agonist activity at adenosine receptors) A2A [6]	melting point [°C]	Heart rate ([4]; at 1–100 μM)	other results
CC[C@H](Cc1sccc1Cl)Nc1ncnc2c1ncn2[C@@H]1C[C@H](CF)[C@@H](O)[C@H]1O [Example 2, (1R,2S,3R,5S)-3-{6-[(R)-1-(3-chloro-thiophen-2-ylmethyl) -propylamino]-purin-9-yl}-5-fluoromethyl-cyclopentane-1,2-diol]	> 40000	20	3400	20	inactive			Contractile force ([4]; at 10 μM): −4% at 10 μM; Heart rate ([4]; at 10 μM): −4% at 10 μM
O[C@@H]1[C@@H](COC(F)(F)F)C[C@@H](n2cnc3c(N[C@H]4CCN(c5cccc(Cl)c5)C4)ncnc32)[C@@H]1O [Example 3, (1R,2S,3R,5R)-3-{6-[1-(3-chloro-phenyl-1-yl)-pyrrolidin-3(S)-ylamino]-purin-9-yl}-5-trifluoromethoxymethyl-cyclopentane-1,2-diol]		3690						EC50 values (agonist activity at adenosine receptors) A3 [1]: inactive; EC50 values (agonist activity at adenosine receptors) A2B [3]: inactive; EC50 ([6]; read-out: EC50 values (agonist activity at adenosine receptors) A2A): > 30000 nM
O[C@@H]1[C@@H](COC(F)(F)F)C[C@@H](n2cnc3c(N[C@H]4CCN(c5ccc(Cl)cn5)C4)ncnc32)[C@@H]1O [Example 9, (1R,2S,3R,5R)-3-{6-[1-(5-chloro-pyridin-2-yl)-pyrrolidin-3(S) -ylamino]-purin-9-yl}-5-trifluoromethoxymethyl-cyclopentane-1,2-diol]						130		
CC[C@H](Cc1sccc1Cl)Nc1ncnc2c1ncn2[C@@H]1C[C@H](COC(F)(F)F)[C@@H](O)[C@H]1O [Example 11, (1R,2S, 3R, 5R)-3-{6-[(R)-1-(3-chloro-thiophen-2-ylmethyl) -propylamino]-purin-9-yl}-5-trifluoromethoxymethyl-cyclopentane-1,2-diol]						140		
O[C@@H]1[C@@H](CF)C[C@@H](n2cnc3c(N[C@H]4CCN(c5cccc(Cl)c5)C4)ncnc32)[C@@H]1O [Example 1, (1R,2S,3R,5S)-3-{6-[1-(3-chloro-phenyl-1-yl)-pyrrolidin-3(S)-ylamino]-purin-9-yl}-5-fluoromethyl-cyclopentane-1,2-diol]	> 50000	150	> 30000	5	inactive		no effect at 1–100 μM	

Continued, in another order:

EC50 [1] [nM]	EC50 [2] [nM]	EC50 [3] [nM]	IC50 [5] [nM]	EC50 values (agonist activity at adenosine receptors) A2A [6]	melting point [°C]	Compound	Heart rate ([4]; at 1–100 μM)	other results
	1250	> 30000	10	Inactive		O[C@@H]1[C@@H](CF)C[C@@H](n2cnc3c(N[C@H]4CCN(c5ccc(Cl)cn5)C4)ncnc32)[C@@H]1O [Example 6, (1R,2S,3R,5S)-3-{6-[1-(5-chloro-pyridin-2-yl)-pyrrolidin-3(S) -ylamino]-purin-9-yl}-5-fluoromethyl-cyclopentane-1,2-diol]	no effect at 1–100 μM	EC50 values (agonist activity at adenosine receptors) A3 [1]: inactive; Contractile force ([4]; at 30 μM): −3% at 30 μM
> 50000	1610	> 30000	100	Inactive		O[C@@H]1[C@@H](CF)C[C@@H](n2cnc3c(N[C@H]4CCN(c5ccc(C(F)(F)F)cn5)C4)ncnc32)[C@@H]1O [Example 4, (1R,2S,3R,5S)-3-{6-[1-(5-trifluoromethyl-pyridin-2-yl)-pyrrolidin-3(S)-ylamino]-purin-9-yl}-5-fluoromethyl-cyclopentane-1,2-diol]	no effect at 1–100 μM	Contractile force ([4]; at 10 μM): −7% at 10 μM
					142	O[C@@H]1[C@@H](COC(F)(F)F)C[C@@H](n2cnc3c(N[C@H]4CCN(c5ccc(C(F)(F)F)cn5)C4)ncnc32)[C@@H]1O [Example 8, (1R,2S,3R,5R)-3-{6-[1-(5-trifluoromethyl-pyridin-2-yl)-pyrrolidin-3(s)-ylamino]-purin-9-yl}-5-trifluoromethoxymethyl-cyclopentane-1,2-diol]		
